# Data taken from PubChem BioAssay AID1996.
# Settings: buffer; pH 7.4; 200.0 µM
row,SMILES,solubility kinetic
1,O=c1c(N2CCOCC2)c(N2CCOCC2)c1=O,> 37.8 µg/mL
2,O=C(Nc1ccccc1)/C(=C1\CCCN1)[N+](=O)[O-],29.6 µg/mL
3,Cc1nc(SCC(=O)O)c(C#N)c2c1CCCC2,> 39.3 µg/mL
4,CCN(C#N)c1nc(NC(C)C)nc(NC(C)(C)C)n1,37 µg/mL
5,CC(c1ccccc1)n1c(Br)nc2c1c(=O)[nH]c(=O)n2C (centres undefined),11.2 µg/mL
6,Cc1cccc(Nc2nc(N3CCOCC3)nc(N3CCOCC3)n2)c1,34.9 µg/mL
7,O=C(c1ccccc1)c1c[nH]c2ccccc12,1.9 µg/mL
8,Cc1ccc(NC(=O)c2ccc(NC(=O)C3CCCCC3C(=O)O)cc2)cc1 (centres undefined),> 57.1 µg/mL
9,O=[N+]([O-])c1cccnc1SCc1c(F)cccc1Cl,< 0.3 µg/mL
10,Brc1ccc(CNCC2CCCO2)cc1 (centres undefined),33.9 µg/mL
11,[O-][n+]1ccccc1/C=C/c1ccccc1,> 29.6 µg/mL
12,COC(=O)c1ccsc1NC(=O)c1cccc(OC)c1,1.4 µg/mL
13,CC(C)c1ccc(NC2CCCN(C(=O)c3ccco3)C2)cc1 (centres undefined),> 46.9 µg/mL
14,Cn1c(=O)c2c(nc(SCc3ccc(F)cc3)n2C)n(C)c1=O,2 µg/mL
15,CCN(Cc1ccccc1)S(=O)(=O)c1ccc(F)cc1,15.6 µg/mL
16,CN1CCN(S(=O)(=O)c2ccc(NC(=O)c3ccc([N+](=O)[O-])cc3)cc2)CC1,4.9 µg/mL
17,Cc1nc(C)n(C)c(=O)c1-c1ccccc1,> 32.1 µg/mL
18,COC(=O)C1=C(O)/C(=C/c2cccc(OC)c2O)N=C1C,35.1 µg/mL
19,COc1ccc(Br)cc1CN1CCCCCC1,37.4 µg/mL
20,O=C(O)c1nn(-c2cccc(C(F)(F)F)c2)ccc1=O,> 42.6 µg/mL
21,COC(=O)C1CN(C(=O)COc2ccccc2C)c2ccccc2O1 (centres undefined),48.8 µg/mL

row,SMILES,solubility kinetic
1,O=C(c1cccc(NS(=O)(=O)c2cccc(F)c2)c1)N1CCCC1,51 µg/mL
2,O=C(COC(=O)c1cccnc1Cl)NC1CCCc2ccccc21 (centres undefined),> 51.7 µg/mL
3,CN1CCN(c2c(F)cc([N+](=O)[O-])c(N)c2Br)CC1,> 50 µg/mL
4,Nc1ccccc1SCC(=O)Nc1ccc2c(c1)OCO2,> 45.4 µg/mL
5,COc1cc(N2C(=O)CC(=O)NC2=O)cc(OC)c1OC,40.7 µg/mL
6,O=c1[nH]c(/C=C/c2ccc3c(c2)OCO3)c([N+](=O)[O-])c(=O)[nH]1,19.4 µg/mL
7,CN(CCC#N)C(=S)Nc1ccc(F)cc1,32.8 µg/mL
8,COc1cc(NC(=O)c2ccccc2[N+](=O)[O-])ccc1NC(=O)c1cc2ccccc2o1,0.7 µg/mL
9,Cc1ccc(Nc2nc(N)c3ccccc3n2)cc1Cl.Cl,22.1 µg/mL
10,CC1(C)C2CCC1(C)C(OC(=O)C[n+]1ccccc1N)C2.[Br-] (centres undefined),> 55.4 µg/mL
11,O=C(NCCc1ccc(Cl)cc1Cl)c1ccc2nc[nH]c2c1,33.2 µg/mL
12,COc1cccc(C(=O)NN2C(=S)N(c3ccccc3)C(=O)C2CC(N)=O)c1 (centres undefined),> 59.8 µg/mL
13,O=C(/C=C(\O)c1ccccc1)C(=O)NNC(=O)c1ccccc1,> 46.5 µg/mL
14,CN=C1S/C(=C\c2ccc(Cl)cc2)C(=O)N1C,1.2 µg/mL
15,O=C(CCOc1ccccc1)N1CCN(c2ccc(O)cc2)CC1,> 49 µg/mL
16,Cc1noc(C)c1S(=O)(=O)Nc1ccccc1Oc1ccccc1,37.5 µg/mL
17,CCOc1ccc(/C=C(\C#N)C(=O)Nc2ccccn2)cc1,2.7 µg/mL
18,Cc1ccc(/C=C2/C(=O)NC(=O)N(Cc3ccc(F)cc3)C2=O)o1,11.4 µg/mL
19,COc1cc(C(=O)NCCNC(=O)c2ccc(C)nc2)cc(OC)c1OC,52.6 µg/mL
20,c1ccc(CCn2cnc3ccccc32)cc1,29.3 µg/mL
21,CC(C)CCNC(=O)COc1ccc(C(=O)c2ccccc2)cc1,13.5 µg/mL

row,SMILES,solubility kinetic
1,Cc1ccccc1NC(=O)CN1CCc2ccccc2C1,24.8 µg/mL
2,O=C(COC(=O)/C=C/c1cccc(F)c1)NC1CC1,> 39.5 µg/mL
3,Cc1cc(=O)[nH]c2sc(C(=O)N3c4ccccc4CC3C)c(N)c12 (centres undefined),> 50.9 µg/mL
4,O=S(=O)([N-]c1nc2ccccc2nc1-[n+]1ccccc1)c1ccc(F)cc1,50.3 µg/mL
5,O=C(COC(=O)/C=C/c1ccccc1[N+](=O)[O-])NCc1ccco1,18.7 µg/mL
6,O=C(COC(=O)c1cccc(F)c1)NCCC1=CCCCC1,9.5 µg/mL
7,Cc1cccc(CSc2nnc([C@@H]3CCCN3)o2)c1.Cl,> 46.8 µg/mL
8,Nc1ccccc1C(=O)Nc1cccc2ccccc12,24.7 µg/mL
9,Cc1ccc(C(CC(=O)O)NC(=O)CCNC(=O)c2ccco2)cc1 (centres undefined),> 51.7 µg/mL
10,O=C(CCC(=O)N1CCCCCC1)NCc1ccc(F)cc1,> 46 µg/mL
11,CCN(CC)S(=O)(=O)c1ccc(C(=O)Nc2cc(S(=O)(=O)N3CCOCC3)ccc2O)cc1,12.2 µg/mL
12,O=C(NC1CC1)c1cc(=S)[nH]c2ccccc12,> 36.6 µg/mL
13,CCOc1ccc(C(=O)Cn2cnc3ccccc3c2=O)cc1,8.5 µg/mL
14,O=C(NCc1ccc2c(c1)OCO2)C(=O)Nc1ccccc1,0.5 µg/mL
15,COc1nc2ccccc2nc1CCC(=O)O,> 34.8 µg/mL
16,COc1ccc(Nc2nc3nonc3nc2N2CCCCC2)cc1,5.3 µg/mL
17,Cc1ccc(NC(=O)CSc2ncccn2)cc1S(=O)(=O)N1CCOCC1,> 61.3 µg/mL
18,CC(C)(C)C(=O)CN1C(=O)NC2(CCCc3ccccc32)C1=O (centres undefined),> 47.2 µg/mL
19,O=C(CSc1ccccc1)NCCc1ccc(F)cc1,34.9 µg/mL
20,COc1cc2c(cc1OC)C(c1ccccc1C)CC(=O)N2 (centres undefined),< 0.6 µg/mL
21,Cc1cccc(NC(=S)NCCc2ccccn2)c1,> 40.7 µg/mL

row,SMILES,solubility kinetic
1,O=C1Nc2ccc(Br)cc2C1(O)c1ccccc1 (centres undefined),> 45.6 µg/mL
2,O=C(O)c1cncc(C#CCC2CCCCC2)c1,34.8 µg/mL
3,COc1ccc(NS(=O)(=O)c2cc(N)ccc2N2CCOCC2)cc1,13.2 µg/mL
4,COc1ccc(NC(=O)CN2CCc3ccccc3C2)c(OC)c1,34.1 µg/mL
5,Nc1ccccc1C(=O)N1CCC(O)(c2ccc(Cl)cc2)CC1,23.9 µg/mL
6,Cc1ccc(S(=O)(=O)NCC(=O)Nc2cccnc2)cc1C,> 47.9 µg/mL
7,O=C(CC(=O)NCc1ccc(Cl)cc1)NCc1ccccc1,7.1 µg/mL
8,O=C(Cn1cnc2cc([N+](=O)[O-])ccc2c1=O)N1CCN(S(=O)(=O)c2ccccc2)CC1,11 µg/mL
9,Nc1cc(N)nc(SCCc2ccccc2)n1,> 36.9 µg/mL
10,CC(C)(C)OC(=O)N1Cc2[nH]c3ccccc3c2C[C@@H]1C(=O)O,> 47.5 µg/mL
11,COc1ccc(C=NOCC(=O)OCC(=O)Nc2ccc(OC)cc2)cc1,16.1 µg/mL
12,O=C1CC(Cc2ccccc2)C(=O)N1c1ccccn1 (centres undefined),> 39.9 µg/mL
13,COc1ccc(NC(=O)c2nc(SC)ncc2Cl)cc1,8.2 µg/mL
14,O=C(Nc1cc(Cl)ccc1O)C1CC(c2ccccc2O)=NO1 (centres undefined),5.8 µg/mL
15,O=C(O)CC1(CC(=O)Nc2ccc(F)cc2F)CCCCC1,> 46.7 µg/mL
16,CC(CCc1ccccc1)NC(=O)c1ccc(Br)cc1 (centres undefined),1.1 µg/mL
17,CCOC(=O)C1CCN(C(=O)/C=C/c2ccc(S(=O)(=O)N3CCOCC3)cc2)CC1,> 65.5 µg/mL
18,N/C(=N\OC(=O)c1cccc(F)c1)c1ccccn1,37.4 µg/mL
19,COc1cccc(NC(=O)[C@@H]2CCC(=O)N2C2OC(=O)c3ccccc32)c1 (some centres undefined),> 55 µg/mL
20,NS(=O)(=O)c1ccc(NC(=O)COC(=O)CCCN2C(=O)c3cccc4cccc(c34)C2=O)cc1,8.8 µg/mL
21,COCCN(C(=S)Nc1ccc(C)cc1)C(C)c1ccco1 (centres undefined),3.4 µg/mL
